In patent US9546173B2 (Novartis AG, priority 2012, dated 2017):

Biological target: activated ERK2 (Homo sapiens (Human), UniProt P28482)
Experiment: Activated ERK2 kinase assay (AlphaScreen, ERKtide peptide phosphorylation)
Type: biochemical
Conditions: […] ERK2, 200 nM ERKtide peptide, 35 μM ATP, 30 min preincubation; read-out: ERK2 IC50
From the text: Production of Activated ERK2 Protein:
Activated ERK2 protein was generated in insect cells by co-expression with a constitutively active form of MEK1. The ERK2 protein was expressed and purified as a nHis-PreScission-ERK2 tagged protein and then proteolytically processed to the full-length wild-type protein. […] Double-phosphorylated ERK2 protein was purified from the mixture by mono-Q column separation.
Activated ERK2 Kinase Assay:
A 16-point, half-log dilution series of compounds at 41× final concentration was used for generating IC50 curves. Compound dilution series were prepared in 100% DMSO. ERK2 was preincubated with compounds for 30 minutes at ambient temperature. Reaction was initiated by addition of a substrate cocktail of ERKtide peptide and ATP and was allowed to proceed for 2-3 hours at ambient temperature. Reaction was terminated by addition of 10 μL of a 2× stop buffer consisting of 100 mM Tris-Cl [pH 7.5], 25 mM EDTA, 0.01% Tween 20, 10 μg/mL of AlphaScreen Protein A Acceptor Beads, 10 μg/mL of Streptavidin Donor Beads (PerkinElmer, Waltham, Mass.), and 1.4 μg/mL phospho-EGF Receptor (Thr669) antibody (Cat #3056, Cell Signaling Technology, Danvers, Mass.). Terminated reactions were read, after overnight incubation in the dark, on an EnVision Multilabel Plate Reader (PerkinElmer, Waltham, Mass.), with excitation and emission wavelengths set to 680 nm and 570 nm, respectively. IC50 values were determined using a four-parameter fit.

activated ERK2, sequence (P28482 whole entry): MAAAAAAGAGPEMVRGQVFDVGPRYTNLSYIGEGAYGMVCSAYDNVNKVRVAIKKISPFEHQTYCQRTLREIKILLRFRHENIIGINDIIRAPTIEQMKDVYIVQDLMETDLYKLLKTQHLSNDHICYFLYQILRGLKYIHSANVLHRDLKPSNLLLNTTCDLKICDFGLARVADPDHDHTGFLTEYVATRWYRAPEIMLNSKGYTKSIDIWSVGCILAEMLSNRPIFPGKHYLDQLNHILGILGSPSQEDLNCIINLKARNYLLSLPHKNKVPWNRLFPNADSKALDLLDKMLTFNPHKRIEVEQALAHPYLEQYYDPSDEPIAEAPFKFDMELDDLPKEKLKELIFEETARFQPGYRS

SMILES	IC50
CC1(C)c2cnc(NC3CCOCC3)nc2CN1C(=O)NCc1cc[nH]c(=O)c1 [compound 34, 5,5-dimethyl-N-((2-oxo-1,2-dihydropyridin-4-yl)methyl)-2-((tetrahydro-2H-pyran-4-yl)amino)-5H-pyrrolo[3,4-d]pyrimidine-6(7H)-carboxamide]	5440 nM
CC1(C)c2cnc(NC3CCOCC3)nc2CN1C(=O)N[C@@H]1c2ccccc2C[C@@H]1O [compound 39, N-((1R,2S)-2-hydroxy-2,3-dihydro-1H-inden-1-yl)-5,5-dimethyl-2-((tetrahydro-2H-pyran-4-yl)amino)-5H-pyrrolo[3,4-d]pyrimidine-6(7H)-carboxamide]	< 25000 nM
C[C@H](NC(=O)N1Cc2nc(NC3CCOCC3)ncc2C1(C)C)c1ccccc1 [compound 40, (S)-5,5-dimethyl-N-(1-phenylethyl)-2-((tetrahydro-2H-pyran-4-yl)amino)-5H-pyrrolo[3,4-d]pyrimidine-6(7H)-carboxamide]	799 nM
CC1(C)c2cnc(NC3CCOCC3)nc2CN1C(=O)NC1(c2ccccc2)CCOCC1 [compound 44, 5,5-dimethyl-N-(4-phenyltetrahydro-2H-pyran-4-yl)-2-((tetrahydro-2H-pyran-4-yl)amino)-5H-pyrrolo[3,4-d]pyrimidine-6(7H)-carboxamide]	2730 nM
CNC(=O)N1Cc2nc(NC3CCOCC3)ncc2C1(C)C [compound 49, N,5,5-trimethyl-2-((tetrahydro-2H-pyran-4-yl)amino)-5H-pyrrolo[3,4-d]pyrimidine-6(7H)-carboxamide]	988 nM
CCNC(=O)N1Cc2nc(NC3CCOCC3)ncc2C1(C)C [compound 50, N-ethyl-5,5-dimethyl-2-((tetrahydro-2H-pyran-4-yl)amino)-5H-pyrrolo[3,4-d]pyrimidine-6(7H)-carboxamide]	839 nM
CC(C)NC(=O)N1Cc2nc(NC3CCOCC3)ncc2C1(C)C [compound 51, N-isopropyl-5,5-dimethyl-2-((tetrahydro-2H-pyran-4-yl)amino)-5H-pyrrolo[3,4-d]pyrimidine-6(7H)-carboxamide]	938 nM
CC(=O)NCCNc1ncc2c(n1)CN(C(=O)N[C@H](CO)c1ccccc1)C2(C)C [compound 56, (S)-2-((2-acetamidoethyl)amino)-N-(2-hydroxy-1-phenylethyl)-5,5-dimethyl-5H-pyrrolo[3,4-d]pyrimidine-6(7H)-carboxamide]	3500 nM
COCCNc1ncc2c(n1)CN(C(=O)N[C@H](CO)c1ccccc1)C2(C)C [compound 57, (S)-N-(2-hydroxy-1-phenylethyl)-2-((2-methoxyethyl)amino)-5,5-dimethyl-5H-pyrrolo[3,4-d]pyrimidine-6(7H)-carboxamide]	3480 nM
CC1(C)c2cnc(NCCC#N)nc2CN1C(=O)N[C@H](CO)c1ccccc1 [compound 58, (S)-2-((2-cyanoethyl)amino)-N-(2-hydroxy-1-phenylethyl)-5,5-dimethyl-5H-pyrrolo[3,4-d]pyrimidine-6(7H)-carboxamide]	1530 nM
CC1(C)c2cnc(N[C@H]3C[C@H](O)C3)nc2CN1C(=O)N[C@H](CO)c1ccccc1 [compound 59, N-((S)-2-hydroxy-1-phenylethyl)-2-(((1r,3S)-3-hydroxycyclobutyl)amino)-5,5-dimethyl-5H-pyrrolo[3,4-d]pyrimidine-6(7H)-carboxamide]	839 nM
CN1CCC(Nc2ncc3c(n2)CN(C(=O)N[C@H](CO)c2ccccc2)C3(C)C)CC1 [compound 61, (S)-N-(2-hydroxy-1-phenylethyl)-5,5-dimethyl-2-((1-methylpiperidin-4-yl)amino)-5H-pyrrolo[3,4-d]pyrimidine-6(7H)-carboxamide]	21000 nM

Continued, values first:

IC50	SMILES
317 nM	CC1(C)c2cnc(NC3CC3)nc2CN1C(=O)N[C@H](CO)c1ccccc1 [compound 31, (S)-2-(cyclopropylamino)-N-(2-hydroxy-1-phenylethyl)-5,5-dimethyl-5H-pyrrolo[3,4-d]pyrimidine-6(7H)-carboxamide]
14 nM	CC1(C)c2cnc(NC3CCOCC3)nc2CN1C(=O)N[C@H](CN)c1ccccc1 [compound 32, (S)-N-(2-amino-1-phenylethyl)-5,5-dimethyl-2-((tetrahydro-2H-pyran-4-yl)amino)-5H-pyrrolo[3,4-d]pyrimidine-6(7H)-carboxamide]
596 nM	CC(C)[C@@H](C)NC(=O)N1Cc2nc(NC3CCOCC3)ncc2C1(C)C [compound 33, (R)-5,5-dimethyl-N-(3-methylbutan-2-yl)-2-((tetrahydro-2H-pyran-4-yl)amino)-5H-pyrrolo[3,4-d]pyrimidine-6(7H)-carboxamide]
106 nM	CC1(C)c2cnc(NC3CCOCC3)nc2CN1C(=O)NCc1ccc(Cl)cn1 [compound 35, N-((5-chloropyridin-2-yl)methyl)-5,5-dimethyl-2-((tetrahydro-2H-pyran-4-yl)amino)-5H-pyrrolo[3,4-d]pyrimidine-6(7H)-carboxamide]
17 nM	CC1(C)c2cnc(NC3CCOCC3)nc2CN1C(=O)NC1(c2ccccc2)CC1 [compound 36, 5,5-dimethyl-N-(1-phenylcyclopropyl)-2-((tetrahydro-2H-pyran-4-yl)amino)-5H-pyrrolo[3,4-d]pyrimidine-6(7H)-carboxamide]
541 nM	CC1(C)c2cnc(NC3CCOCC3)nc2CN1C(=O)NCC1CC1 [compound 37, N-(cyclopropylmethyl)-5,5-dimethyl-2-((tetrahydro-2H-pyran-4-yl)amino)-5H-pyrrolo[3,4-d]pyrimidine-6(7H)-carboxamide]
516 nM	CC1(C)c2cnc(NC3CCOCC3)nc2CN1C(=O)N[C@H]1c2ccccc2C[C@H]1O [compound 38, N-((1S,2R)-2-hydroxy-2,3-dihydro-1H-inden-1-yl)-5,5-dimethyl-2-((tetrahydro-2H-pyran-4-yl)amino)-5H-pyrrolo[3,4-d]pyrimidine-6(7H)-carboxamide]
13 nM	CC1(C)c2cnc(NC3CCOCC3)nc2CN1C(=O)N[C@@H]1CCCN(S(=O)(=O)c2ccccc2F)C1 [compound 41, (R)-N-(1-((2-fluorophenyl)sulfonyl)piperidin-3-yl)-5,5-dimethyl-2-((tetrahydro-2H-pyran-4-yl)amino)-5H-pyrrolo[3,4-d]pyrimidine-6(7H)-carboxamide]
27 nM	CC1(C)c2cnc(NC3CCOCC3)nc2CN1C(=O)N[C@@H]1CCCN(S(=O)(=O)c2ccccc2)C1 [compound 42, (R)-5,5-dimethyl-N-(1-(phenylsulfonyl)piperidin-3-yl)-2-((tetrahydro-2H-pyran-4-yl)amino)-5H-pyrrolo[3,4-d]pyrimidine-6(7H)-carboxamide]
625 nM	Cc1cc(Nc2ncc3c(n2)CN(C(=O)N[C@H](CO)c2ccccc2)C3(C)C)ccn1 [compound 45, (S)-N-(2-hydroxy-1-phenylethyl)-5,5-dimethyl-2-((2-methylpyridin-4-yl)amino)-5H-pyrrolo[3,4-d]pyrimidine-6(7H)-carboxamide]
31 nM	CC1(C)c2cnc(NC3CCOCC3)nc2CN1C(=O)NCc1ccccc1 [compound 46, N-benzyl-5,5-dimethyl-2-((tetrahydro-2H-pyran-4-yl)amino)-5H-pyrrolo[3,4-d]pyrimidine-6(7H)-carboxamide]
31 nM	CC1(C)c2cnc(NC3CCOCC3)nc2CN1C(=O)NCC1CCCCC1 [compound 47, N-(cyclohexylmethyl)-5,5-dimethyl-2-((tetrahydro-2H-pyran-4-yl)amino)-5H-pyrrolo[3,4-d]pyrimidine-6(7H)-carboxamide]
107 nM	CC1(C)c2cnc(Nc3ccc(F)cc3)nc2CN1C(=O)N[C@H](CO)c1ccccc1 [compound 52, (S)-2-((4-fluorophenyl)amino)-N-(2-hydroxy-1-phenylethyl)-5,5-dimethyl-5H-pyrrolo[3,4-d]pyrimidine-6(7H)-carboxamide]
505 nM	CC1(C)c2cnc(NCC3CC3)nc2CN1C(=O)N[C@H](CO)c1ccccc1 [compound 53, (S)-2-((cyclopropylmethyl)amino)-N-(2-hydroxy-1-phenylethyl)-5,5-dimethyl-5H-pyrrolo[3,4-d]pyrimidine-6(7H)-carboxamide]
727 nM	CC1(C)c2cnc(NC3CC(F)(F)C3)nc2CN1C(=O)N[C@H](CO)c1ccccc1 [compound 54, (S)-2-((3,3-difluorocyclobutyl)amino)-N-(2-hydroxy-1-phenylethyl)-5,5-dimethyl-5H-pyrrolo[3,4-d]pyrimidine-6(7H)-carboxamide]
677 nM	CC1(C)c2cnc(N[C@H]3C[C@@H](O)C3)nc2CN1C(=O)N[C@H](CO)c1ccccc1 [compound 55, N-((S)-2-hydroxy-1-phenylethyl)-2-(((1s,3R)-3-hydroxycyclobutyl)amino)-5,5-dimethyl-5H-pyrrolo[3,4-d]pyrimidine-6(7H)-carboxamide]
82 nM	CC1(C)c2cnc(N[C@H]3CC[C@H](O)CC3)nc2CN1C(=O)N[C@H](CO)c1ccccc1 [compound 60, N-((S)-2-hydroxy-1-phenylethyl)-2-(((1r,4S)-4-hydroxycyclohexyl)amino)-5,5-dimethyl-5H-pyrrolo[3,4-d]pyrimidine-6(7H)-carboxamide]
